Experimental findings from paper PMC10107299, “Neutralizing the Impact of the Virulence Factor LecA from Pseudomonas aeruginosa on Human Cells with New Glycomimetic Inhibitors” (Angewandte Chemie (International Ed. in English), 2023) are described below.

What is called solubility (kinetic) is solubility judged after dilution from a stock solution rather than from solid. As a reminder, the IC50 is the midpoint of a concentration-inhibition curve. A higher IC50 goes with a need for much substance. As usually defined, the Kd is the equilibrium constant for the complex coming apart. A lower Kd goes with a tighter complex. By koff is commonly meant the rate constant with which the complex falls apart. High values mean fast dissociation, low ones slow dissociation.

A short description of data set [1]: Kinetic solubility in TBS/Ca2+ buffer (HPLC-MS). Format: physicochemical. The settings on record: aqueous buffer, kinetic from dmso stock; TBS/Ca2+ buffer pH 7.4, 1 % DMSO, N≥3; read-out: Solubility S (kinetic). The protocol:
Next, we quantified the solubility of at least one representative of each new class and of one parent bisacylhydrazone in aqueous media (Table 1). […]
TBS/Ca2+ buffer (20 mM Tris, 137 mM NaCl, 2.6 mM KCl at pH 7.4 supplemented with 1 mM […]
(§1) CaCl2) in presence of 25% DMSO. […]
Kinetic solubility was determined on the analytical HPLC-MS using Compass QuantAnalysis quantification software (Bruker). Samples were prepared from DMSO stock solutions by dilution with TBS/Ca2+ buffer to 100 µM with 1% DMSO present. Samples were incubated on a shaker for 1 h at r.t., centrifuged (21380 g, 20 min), supernatants were diluted with DMSO (1:3), analyzed by HPLC-MS and fitted to the individual calibration curves.
Every experiment was repeated independently at least three times. […]

In data set [2] the target is T1, LecA (Pseudomonas aeruginosa, UniProt Q05097).
T1 construct: made in house
T1 sequence (Q05097 whole entry): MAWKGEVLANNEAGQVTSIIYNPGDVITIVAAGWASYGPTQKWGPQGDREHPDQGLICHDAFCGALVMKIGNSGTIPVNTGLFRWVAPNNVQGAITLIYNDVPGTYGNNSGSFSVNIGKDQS
Kind of data set: Competitive binding assay based on fluorescence polarization. The protocol: All synthesized galactosides were then evaluated for LecA inhibition using a competitive binding assay based on fluorescence polarization (Figure S1).[24]
Expression and purification of LecA as well as competitive binding by fluorescence polarization was performed as described by Joachim et al..[9] The assay was performed in TBS/Ca2+ buffer (20 mM Tris, 137 mM NaCl, 2.6 mM KCl at pH 7.4 supplemented with 1 mM CaCl2) in presence of 25% DMSO. Averages and standard deviations were calculated from at least three independent experiments. […]
RR OR In h i b i to r [µ M ]
R R In h i b i to r [µ M ] […]
R In h i b i to r [µ M ] 30 L2
30 F2 40 K2 In h i b i to r [µ M ] […]
In h i b i to r [µ M ] In h i b i to r [µ M ]
Figure S1: Evaluation of amide divalent LecA ligands in a competitive binding assay based on fluorescence […]
representative experiment is shown or each series. Averages and standard deviations from at least three independent titrations of triplicates each.
[…] Fluorescence polarization [mP] -1 0 1 2 3 0 1001010 Me-α-Gal pNO2-Ph-β-Gal 1000 Inhibitor [µM] Fluorescence polarization [mP])
On the technique in general: Polarisation of emitted light reports the rotation of a fluorescent probe.

The target in data set [3] is T1, LecA. Kind of data set: Direct binding to immobilized LecA by surface plasmon resonance (SPR). The settings on record: for kon: SPR single-cycle kinetics, 25 °C, N=3 (I1 N=1); for Relative potency r.p. (SPR): compared to respective monovalent compound in each series. The method, then: K d values were oscillating with the number of methylene units present in the linker, presumably linked to the zig‐zag geometry of the hydrocarbon chain.
Expression and purification of LecA as well as competitive binding by fluorescence polarization was performed as described by Joachim et al..[9] […]
Surface plasmon resonance experiments were performed on a BIACORE X100 instrument (GE Healthcare) at 25 °C as described by Zahorska et. al..[8] Averages and standard deviations were calculated from three independent experiments. […]
Figure S3: SPR of divalent LecA ligands from benzene series. Sensorgrams obtained from SPR single-cycle kinetics experiments. Five different concentrations of each compound (0, 10, 50, 100, 200 nM) were sequentially injected to obtain the experimental sensorgrams (blue lines), which were then fitted by a 1:1 model (orange) on BIACORE evaluation software. […]
Figure S4: SPR of divalent LecA ligands from pyridine and sulfonated series. Sensorgrams obtained from SPR single-cycle kinetics experiments. Five different concentrations of each compound (0, 10, 50, 100, 200 nM) were sequentially injected to obtain the experimental sensorgrams (blue lines), which were then fitted by a 1:1 model (orange) on BIACORE evaluation software.
(also on this page, place not known: Response (RU)0 Response (RU)0 Response (RU) Response (RU) Response (RU) Response (RU) 030060090012001500) […]

For data set [4], the target named is T1, LecA. The data set can be described thus: Isothermal titration microcalorimetry (ITC) with LecA. In kind it is binding. The settings on record: for -TΔS (supplement) / ΔS: ITC average ± s.d.; for Relative potency r.p. (ITC): compared to respective monovalent compound in each series; for ΔG, individual titration / ΔH, individual titration: LecA 35-182 µM, ligand 100 µM-1.5 mM as headed.
From the text: Due to the high solubility of the propanamides in the pyridine series and the sulfonated ligand L2, we determined binding thermodynamics with LecA using isothermal titration microcalorimetry (ITC, Figure 3, Figures S5–S9). […] In both cases, the enthalpy of binding increased approximately twofold (I2: ΔH=−23.9±1.2 kcal mol^−1, L2: ΔH=−19.5±1.3 kcal mol^−1) compared to their monovalent analogues (G2: ΔH=−11.0±0.2 kcal mol^−1, K2: ΔH=−10.3±0.1 kcal mol^−1), while the binding entropy was increased approximately threefold (G2: −TΔS=3.8±0.2 kcal mol^−1 vs. I2: −TΔS=13.7±1.3 kcal mol^−1, K2: −TΔS=3.2±0.2 kcal mol^−1 vs. L2: −TΔS=9.4±1.3 kcal mol^−1).
Figure 3 Direct binding of selected ligands to LecA by ITC (N=3). Titration of LecA (50 μM) with divalent sulfonated ligand L2 (250 μM) is depicted. Relative potencies (r.p.) were calculated compared to respective monovalent compound in each series and […]. TEXT PRINTED IN THE PICTURE: G2: ΔG [kcal/mol]: -7.2 ± 0.1; ΔH [kcal/mol]: -11.0 ± 0.2; -TΔS [kcal/mol]: 3.8 ± 0.2; N: 1.07 ± 0.06; Kd [nM]: 5 270 ± 30; r.p.: 1 | I2: ΔG [kcal/mol]: -10.2 ± 0.2; ΔH [kcal/mol]: -23.9 ± 1.2; -TΔS [kcal/mol]: 13.7 ± 1.3; N: 0.43 ± 0.01; Kd [nM]: 35.1 ± 12.5; r.p.: 150 | J2: ΔG [kcal/mol]: -9.7 ± 0.2; ΔH [kcal/mol]: -13.5 ± 0.4; -TΔS [kcal/mol]: 3.8 ± 0.5; N: 0.61 ± 0.06; Kd [nM]: 79.5 ± 32.8; r.p.: 66 | K2: ΔG [kcal/mol]: -7.1 ± 0.1; ΔH [kcal/mol]: -10.3 ± 0.1; -TΔS [kcal/mol]: 3.2 ± 0.2; N: 1.08 ± 0.13; Kd [nM]: 6 230 ± 440; r.p.: 1 | L2: ΔG [kcal/mol]: -10.1 ± 0.1; ΔH [kcal/mol]: -19.5 ± 1.3; -TΔS [kcal/mol]: 9.4 ± 1.3; N: 0.52 ± 0.06; Kd [nM]: 39.9 ± 3.6; r.p.: 156 […]
Expression and purification of LecA as well as competitive binding by fluorescence polarization was performed as described by Joachim et al..[9] The assay was performed in TBS/Ca2+ buffer (20 mM Tris, 137 mM NaCl, 2.6 mM KCl at pH 7.4 supplemented with 1 mM […]
as §1
Isothermal titration calorimetry was performed on an iTC200 (Malvern Panalytical) and the data were analyzed using Microcal Origin software (Malvern Panalytical). LecA (50 - 180 […]
K2 and L2 and TBS/Ca2+ buffer supplemented with 5% DMSO for I2 and J2. Steep titration slopes achieved with the divalent ligands were the result of high amount of protein present and the high binding affinity of the ligand (high ‘value of c’).[10] However, LecA protein […]
low heat released upon binding. […]

Setting [5] is: ITC average, 25 °C, TBS/Ca2+ buffer (5% DMSO for I2 and J2), N=3.
Where [6] appears, read: Kd (ITC), ITC average, 25 °C, TBS/Ca2+ buffer (5% DMSO for I2 and J2), N=3.
[7] abbreviates: Kd, individual titration, single ITC titrations, three per ligand.
Setting [8] is: single ITC titrations, three per ligand.

Values after ≈ are worked out from the molar mass of the structure shown. Values joined by “and” are separate entries in the source; they are usually repeats but may differ in a detail not shown here. Identical values can stand only once.

Take `O=C(CCc1ccc(O[C@@H]2O[C@H](CO)[C@H](O)[C@H](O)[C@H]2O)cc1)Nc1ccc(OCCCOc2ccc(NC(=O)CCc3ccc(O[C@@H]4O[C@H](CO)[C@H](O)[C@H](O)[C@H]4O)cc3)cn2)nc1` [Compound I2]: in data set [1], the kinetic solubility at 1 h amounted to 63.3 ± 4.2 µM (≈ 55.8 µg/mL). Moreover, the 50% inhibitory concentration (IC50) on LecA [2] turned out to be 3200 ± 1300 nM. On LecA [3], binding was characterised by a dissociation constant (Kd) of 30.8 ± 1.5 nM, the koff was 0.00809 ± 0.00124 s⁻¹, the kon was 262 ± 28 x10^3/Ms and the “Relative potency r.p. (SPR)” value stood at 97. Besides, at LecA [4] (25 °C), the “-TΔS (supplement)” value amounted to 13.7 ± 1.3 kcal/mol and the ΔS was -45.9 ± 4.5 cal/mol/K. For the same compound, on LecA [4] (ITC average, 25 °C, N=3), the “N (stoichiometry)” value came out at 0.43 ± 0.01. At LecA [4] (setting [5]), the “-TΔS” value is 13.7 ± 1.3 kcal/mol, the ΔG was -10.2 ± 0.2 kcal/mol and the ΔH is reported as -23.9 ± 1.2 kcal/mol. The Kd on LecA [4] (setting [6]) was determined as 35.1 ± 12.5 nM. The Kd at LecA [4] (setting [7]) is 48.3 nM and 38.8 nM and 18.3 nM. Further, the “Relative potency r.p. (ITC)” value on LecA [4] is recorded as 150. Besides, at LecA [4] (setting [8]), the “N, individual titration” value was 0.44 (2×) and 0.43; the “ΔS, individual titration” value was -51.6 cal/mol/K and -40.6 cal/mol/K and -45.6 cal/mol/K; the “ΔG, individual titration” value is -10.0 kcal/mol and -10.1 kcal/mol and -10.6 kcal/mol; the “ΔH, individual titration” value was -23.6 kcal/mol and -25.5 kcal/mol and -22.7 kcal/mol.

For `O=C(CCc1ccc(O[C@@H]2O[C@H](CO)[C@H](O)[C@H](O)[C@H]2O)cc1)Nc1ccc(OCCCCOc2ccc(NC(=O)CCc3ccc(O[C@@H]4O[C@H](CO)[C@H](O)[C@H](O)[C@H]4O)cc3)cn2)nc1` [Compound J2], the kinetic solubility at 1 h in data set [1] amounted to 13.7 ± 1.7 µM (≈ 12.3 µg/mL). Besides, the IC50 on LecA [2] was 3400 ± 1300 nM. At LecA [3], binding was characterised by a dissociation constant (Kd) of 25.1 ± 1.9 nM, the koff amounted to 0.0068 ± 0.00265 s⁻¹, the kon is 267 ± 84 x10^3/Ms and the “Relative potency r.p. (SPR)” value is listed as 118. Also, at LecA [4] (25 °C), the “-TΔS (supplement)” value is listed as 3.8 ± 0.5 kcal/mol and the ΔS was -12.6 ± 1.8 cal/mol/K. For the same compound, the “N (stoichiometry)” value at LecA [4] (ITC average, 25 °C, N=3) stood at 0.61 ± 0.06. Besides, on LecA [4] (setting [5]), the “-TΔS” value was 3.8 ± 0.5 kcal/mol, the ΔG is on record as -9.7 ± 0.2 kcal/mol and the ΔH is -13.5 ± 0.4 kcal/mol. The compound also gave a Kd at LecA [4] (setting [6]) of 79.5 ± 32.8 nM. Also, on LecA [4] (setting [7]), the Kd was 59.9 nM and 52.9 nM and 126 nM. Moreover, the “Relative potency r.p. (ITC)” value on LecA [4] came out at 66. For the same compound, at LecA [4] (setting [8]), the “N, individual titration” value is 0.53 and 0.62 and 0.69; the “ΔS, individual titration” value is -10.1 cal/mol/K and -13.8 cal/mol/K and -14.0 cal/mol/K; the “ΔG, individual titration” value was -9.9 kcal/mol (2×) and -9.4 kcal/mol; the “ΔH, individual titration” value was -14.0 kcal/mol and -12.9 kcal/mol and -13.5 kcal/mol.
